# Measured values taken from patent publication US8815799B2, “Inhibiting striated muscle activator of RHO (stars) to improve glycemic control” (Joslin Diabetes Center, Inc., priority 2010, dated 2014).
# “Also recorded” adds a separate entry of the source.
# Assays:
# C2C12 myotubes = test: Deoxyglucose uptake in cultured myotubes (FIG. 11E); type: cell-based
# Text: (§1) Since CCG-1423 increased insulin signalling in myotubes, we hypothesized that CCG-1423 might also enhance glucose uptake. In DMSO (vehicle)-treated myotubes, insulin stimulated a 2-fold increase in deoxyglucose uptake in a dose-dependent manner, consistent with prior reports and the low insulin responsiveness in cultured myotubes (FIG. 11E). […] In parallel, expression of the dominant glucose transporters GLUT4 and GLUT1 was increased by CCG-1423 treatment by 4.1 and 2.5 fold, respectively (p<0.004).
# (§2) To determine whether increased expression of STARS can modulate glucose uptake, basal and insulin-stimulated glucose uptake in are measured in L6 myotubes overexpressing STARS (day 6 of differentiation). In brief, following overnight serum starvation, myotubes are treated with insulin (0 to 100 nM) for 20 minutes and then incubated with transport solution (140 mM NaCl, 20 mM Hepes, 5 mM KCl, 2.5 mM MgSO4, 1.0 mM CaCl2, 10 μM 2-deoxyglucose, 0.5 μCi/mL [^3H]-2-deoxyglucose) for 10 minutes. Cells are lysed in 0.05N NaOH and radioactivity determined by scintillation counting. All assays are performed in quadruplicate and corrected by uptake in cytochalasin-treated wells. Glucose transport assays are also performed in STARS-Myc-GLUT4 cells, given their higher insulin responsiveness.
# IRS-1 = IRS-1 tyrosine phosphorylation and association with p85 PI 3-kinase in myotubes; type: cell-based
# Method: FIG. 11D is a phosphoimmunoblot showing that CCG-1423 increases basal and insulin-stimulated tyrosine phosphorylation of IRS-1 and its association with p85-PI 3-kinase, in both control and DEX-treated myotubes. * indicates p<0.05, **p<0.01, ***p<0.001.
# (§3) In parallel, CCG-1423 enhanced insulin action in C2C12 myotubes. Overnight treatment with 1 μM CCG-1423 increased insulin-stimulated Akt phosphorylation, both in the presence and absence of dexamethasone (41% for both, p=0.01 and p=0.007, respectively), while having no effect on p42/44 ERK phosphorylation (FIG. 11C).
# [1] = CCG-1423 treatment of high-fat diet-fed mice (glucose tolerance, insulin, body weight); type: in vivo
# Method: (§4) To examine the therapeutic potential of this SRF inhibitor in vivo, we assessed responses to CCG-1423 treatment in mice with diet-induced obesity. […] The HFD mice were administered CCG-1423 (0.15 mg/kg body weight intraperitoneally) for two weeks.
# In parallel, the high insulin levels associated with insulin resistance were normalized by CCG-1423 treatment (FIG. 13C).
# To test this hypothesis, mice are treated with CCG-1423 in 2 models of murine insulin resistance: (1) high-fat diet-fed C57BL/6J mice (60% of calories from fat), or (2) genetically obese ob/ob mice. For these studies, mice are injected with CCG-1423 0.15 mg/kg/day or vehicle (DMSO), intraperitoneally, for 2 weeks. Body weight and food intake are monitored daily.
# GLUT4 = GLUT4 expression in myotubes; type: cell-based; conditions: myotubes treated with CCG-1423
# Text: as §1
# (§5) To address whether STARS and MKL1-dependent SRF transcriptional activity contribute to the pathophysiology of insulin resistance, experiments were performed to test whether modulation of STARS expression and/or SRF activation can improve key cellular phenotypes associated with insulin resistance, including insulin action and glucose uptake. L6 myotubes stably expressing Myc-GLUT4 were infected with an adenovirus containing a short hairpin targeting STARS, resulting in a 54% reduction in STARS protein expression; this was associated with a 3.7-fold increase in basal glucose uptake and a 3.6-fold increase in insulin-stimulated glucose uptake (FIG. 19A).
# L6 myotubes = test: 2-deoxyglucose uptake in L6 myotubes (FIG. 11E legend); type: cell-based; conditions: CCG-1423 1 μM, 16 hours
# Method: FIG. 11E is a line graph showing that both basal and insulin-stimulated 2-deoxyglucose uptake are increased by >4-fold in L6 myotubes following CCG-1423, with enhanced insulin sensitivity (1 μM, 16 hours). * indicates p<0.05, **p<0.01,***p<0.001.
# as §2
# [2] = test system: SRF, ELK1, SRF targets (ZYX, PDLIM7); test: Gene expression in skeletal muscle of HFD mice treated with CCG-1423; type: in vivo
# Method: as §4
# MKL1 = MKL1 cellular localization in C2C12 myoblasts; type: cell-based
# Method: Since MKL1 is known to shuttle between the cytosol and nucleus to modulate target gene expression (Vartiainen et al., Science. 316:1749-1752 (2007)), the possibility arises that MKL1 localization may differ in insulin resistant state as compared to the normal state. […] In the basal state, MKL1 predominantly localized to cytosol and partially in nucleus. After 30 minutes of serum stimulation, MKL1 translocated to the […]. […] To determine whether MKL1 and G actin complex formation is changed in insulin resistance, the nuclear and cytosolic fractions from C2C12 myotubes were co-immunoprecipitated with MKL1 and blotted with beta actin.
# To determine if the effects of CCG-1423 on SRF activity were mediated via MKL1 localization, MKL1 localization was assessed in C2C12 myoblasts treated with CCG-1423.
# human myotubes = test: Basal glucose uptake in human myotubes from control and diabetic subjects; type: cell-based
# Method: The effects of CCG-1423 on human myotubes, and whether these effects would differ in myotubes derived from controls (n=2) vs. diabetic subjects (n=6), were also evaluated. […] The differential responsiveness in subjects with DM supports the concept that SRF pathways are more robustly activated in humans with insulin resistance and DM, and therefore potentially more sensitive to SRF inhibition.
# Akt = Akt phosphorylation (phosphoimmunoblot) in C2C12 myotubes; type: cell-based; conditions: for increase in insulin-stimulated Akt phosphorylation: C2C12 myotubes, overnight 1 μM CCG-1423
# Method: The next experiments were performed to determine whether SRF transcriptional activity, rather than expression of SRF itself, is important for maintaining appropriate insulin sensitivity. A new compound, CCG-1423, is available for specifically inhibiting SRF transcriptional activity (Evelyn et al., Mol. Cancer Ther. 6:2249-2260 (2007)). […] CCG-1423 was then evaluated to test the possibility that reducing SRF transcriptional activity improves insulin sensitivity. Indeed, this is the case.
# as §3
# p42/44 ERK = p42/44 ERK phosphorylation in C2C12 myotubes; type: cell-based; conditions: overnight 1 μM CCG-1423 (FIG. 11C)
# Method: as §3
# [3] = test system: SRF transcriptional activity; test: SRF transcriptional activity, 4x CArG (SRE) promoter luciferase reporter in C2C12 cells; type: cell-based; conditions: activity induced by serum, dexamethasone or insulin, CCG-1423 1 μM, 16 hours pre-treatment (FIG. 10, 11B)
# Method: FIG. 11B is a bar graph showing the effect of CCG on SRF transcriptional activity. 4× CArG promoter is activated in response to serum stimulation (FBS 2 hours, control) and following overnight treatment with 100 μM dexamethasone (DEX) in C2C12 myoblasts. This SRF-mediated transcriptional activity was blocked by pre-treatment with CCG-1423 (1 μM, 16 hours).
# To determine whether SRF transcriptional activity is also changed in insulin resistance, 4× tandem repeat of SRF binding element (SRE) CArG boxes (Kuwahara et al., Mol. Cell Biol. 25:3173-3181 (2005)) promoters linked to a luciferase gene were used as a reporter. […] These increases in SRF transcriptional activity in insulin resistant states could cause up-regulation of SRF target gene expression.
# GLUT1 = GLUT1 expression in myotubes; type: cell-based; conditions: myotubes treated with CCG-1423
# Text: as §1, §5
# Myc-GLUT4 L6 myotubes = test: Glucose uptake in Myc-GLUT4 L6 myotubes; type: cell-based
# Method: as §2, §5
# To test the effect of reduced STARS expression (shRNA) and reduced SRF pathway activation (chemical inhibitor CCG-1423) in cultured myotubes, knock-down assays were performed. shSTARS target sequences (Forward 5′-[…] […] A-3′ (SEQ ID NO:1); Reverse 5′-[…] […] […]-3′ (SEQ ID NO:2)), or scrambled control (IDT RNA design), were cloned into pAdTrack-CMV adenoviral vector, and Myc-GLUT4 L6 myotubes were infected with amplified adenovirus (8×10^7 pfu/well, 6-well plate) at 3 days after differentiation. […] Thus, experimental reductions in STARS expression are associated with an increase insulin signaling and basal glucose uptake in cultured myotubes.
# Since genetic knockdown of STARS expression enhanced glucose transport, a key question is whether pharmacologic inhibition of SRF transcriptional activity would similarly modulate glucose transport. Studies with CCG-1423, an SRF transcriptional inhibitor identified by compound library screening, were performed. […] By comparison, insulin stimulated glucose uptake by 1.6-fold (p<0.01; FIG. 20).
# STARS = STARS expression in C2C12 myotubes after actin disruption; type: cell-based; conditions: disruption of actin
# Text: Additional pathway analysis using MAPPFinder confirmed that serum response factor (SRF)-dependent and actin-related cytoskeleton gene expression is increased in diabetes, and more importantly, also in insulin resistance. The top-ranking single gene differentially expressed in skeletal muscle in the fasting state is the Actin-binding Rho activating protein (ABRA), or STARS, increased by 2.5 fold in individuals with type 2 diabetes (p<0.01). This gene regulates intracellular actin dynamics and subcellular localization of MKL1/2, thus contributing to SRF-dependent gene transcription. Since disruption of actin by latrunculin B increases STARS expression in C2C12 cells by 50% in C2C12 myotubes (p<0.03, not shown), it was hypothesize that increased STARS expression in DM may reflect disruption of actin dynamics and also contribute to the pattern of increased SRF-related gene expression. Similar patterns of SRF-dependent expression are also observed in adipose tissue from insulin resistant subjects and in insulin resistant muscle.
# [4] = control and DEX-treated myotubes (FIG. 11D)
# [5] = HFD mice, CCG-1423 0.15 mg/kg intraperitoneally, two weeks, vs vehicle-treated HFD mice, 0.15 mg/kg
# [6] = CCG-1423 0.15 mg/kg intraperitoneally, two weeks
molecule,measurement,setting,value
CC(ONC(=O)c1cc(C(F)(F)F)cc(C(F)(F)F)c1)C(=O)Nc1ccc(Cl)cc1 (stereo not shown) [CCG-1423],"increase in glucose uptake, basal state",C2C12 myotubes; myotubes incubated with CCG-1423 (FIG. 11E),4 fold
same,insulin-stimulated glucose uptake response,"C2C12 myotubes; myotubes incubated with CCG-1423, 1 μM insulin (FIG. 11E)",11.5 fold
same,association of IRS-1 with p85 regulatory subunit of PI 3-kinase,IRS-1; [4],increases
same,basal and insulin-stimulated tyrosine phosphorylation of IRS-1,IRS-1; [4],increases
same,p85 expression,IRS-1; myotubes treated with CCG-1423,without altering
same,serum insulin levels during glucose tolerance test,"[1]; HFD mice, 15 minutes after glucose injection, vs vehicle-treated HFD animals",normalized; also recorded: significantly reduced
same,body weight,[1]; [5],No significant change; also recorded: no differences; also recorded: not altered
same,food intake,[1]; [5],No significant change; also recorded: no differences
same,in vivo glucose tolerance (intraperitoneal glucose tolerance test),[1]; [5],significantly improved; also recorded: improves glucose tolerance; also recorded: improved in vivo glucose tolerance
same,adiponectin levels,"[1]; HFD mice, CCG-1423 two weeks",No differences
same,circulating fatty acid levels,"[1]; HFD mice, CCG-1423 two weeks",No differences
same,insulin tolerance testing,"[1]; HFD mice, CCG-1423 two weeks",No differences
same,glucose tolerance test area under the curve (AUC),"[1]; HFD mice, CCG-1423 two weeks, vs vehicle-treated HFD animals",significantly reduced
same,reduction of fed insulin levels,"[1]; HFD-fed mice, CCG-1423 0.15 mg/kg/day intraperitoneally, 2 weeks, vs HFD-fed mice",50%
same,increase in GLUT4 expression,GLUT4,4.1 fold
same,increase in basal and insulin-stimulated 2-deoxyglucose uptake,L6 myotubes,> 4 fold
same,expression of ELK1,[2]; [6],did not alter
same,expression of SRF,[2]; [6],did not alter
same,"expression of SRF targets in skeletal muscle, e.g., ZYX and PDLIM7","[2]; CCG-1423 two weeks, vs vehicle-injected controls",significantly decreased
same,MKL1 cytosol/nuclear localization,MKL1,almost exclusively localized to the cytoplasm; also recorded: reversed dexamethasone-induced MKL1 nuclear localization to partial cytoplasmic localization; also recorded: inhibition of MKL1 nuclear localization; also recorded: reduced nuclear translocation of MKL1
same,"basal increase in glucose uptake, mean",human myotubes; human myotubes from control subjects (n=2),1.2 fold
same,"basal increase in glucose uptake, mean",human myotubes; human myotubes from diabetic subjects (n=6),3.2 fold
same,increase in insulin-stimulated Akt phosphorylation,Akt; absence of dexamethasone,41%
same,increase in insulin-stimulated Akt phosphorylation,Akt; presence of dexamethasone,41%
same,insulin-stimulated Akt phosphorylation (marker of insulin sensitivity),"Akt; myotubes, with or without dexamethasone, insulin 100 nM, 10 minutes (FIG. 11A, 11C)",increased insulin-simulated Akt phosphorylation; also recorded: improves insulin-stimulated Akt phosphorylation; also recorded: increases insulin-stimulated Akt phosphorylation
same,p42/44 ERK phosphorylation,p42/44 ERK,no effect; also recorded: minimal change
same,inhibition of SRF transcriptional activity / SRE promoter activity,[3],specifically blocks SRF transcriptional activity; also recorded: reduced SRE promoter activity and efficiently blocked both serum- and dexamethasone-stimulated activation; also recorded: reduces SRE promoter activity; also recorded: inhibits SRF activity
same,increase in GLUT1 expression,GLUT1,2.5 fold
same,basal and insulin-stimulated glucose uptake (figure legend),"Myc-GLUT4 L6 myotubes; Myc-GLUT4 L6 myotubes (FIG. 19A, FIG. 20)",increases basal and insulin-stimulated 2-deoxyglucose uptake
same,increase in basal glucose uptake,"Myc-GLUT4 L6 myotubes; Myc-GLUT4 L6 myotubes, CCG-1423 1 μM, 16 hours",1.9 fold
same,"increase in glucose uptake, combination with insulin","Myc-GLUT4 L6 myotubes; Myc-GLUT4 L6 myotubes, combination of CCG-1423 and insulin",2.6 fold
C/C1=C/C(=O)O[C@@H]2C[C@@H](CC[C@H](C)/C=C\CC1)O[C@@](O)([C@@H]1CSC(=O)N1)C2 [latrunculin B],increase in STARS expression,STARS,50%
insulin,insulin-stimulated increase in deoxyglucose uptake,"C2C12 myotubes; DMSO (vehicle)-treated myotubes, dose-dependent",2 fold
same,insulin-stimulated glucose uptake,"Myc-GLUT4 L6 myotubes; Myc-GLUT4 L6 myotubes, insulin alone (FIG. 20)",1.6 fold
